# Source: patent publication US6555571B2, “3-methyl -chromane or thiochromane derivatives” (Chugai Seiyaku Kabushiki Kaisha, priority 1999, dated 2003)
# Test system: increase in uterus weight by stimulus with estradiol
# Assay: Anti-estrogenic activity via oral administration (inhibition of estradiol-stimulated increase in uterus weight in ovariectomized mice)
# Format: in vivo
# Settings: ovariectomized ICR mice, 17β-estradiol-benzoate 0.1 μg/day s.c. for 3 days, test compound 10 mg/kg p.o., once a day, uterus weighed 24 hours after last administration
# Procedure: Oral anti-estrogenic activity in vivo of the test compound was determined according to the method described hereinafter. […] In this experiment, the test compounds and the control compound were suspended in 5% arabic gum solution and orally administered for 3 days, once a day. After 24 hours from the last administration, the test animal was sacrificed and uterus was removed and weighed.
row,Structure (SMILES),Inhibition (%) of the increase in uterus weight by estradiol [%]
1,"C[C@]1(c2ccc(O)cc2)CCc2cc(O)ccc2C1CCCCCCCCC[S+]([O-])CCCC(F)(F)C(F)(F)F (some centres unmarked) [ZM189154, reference compound]",41.7
2,"C[C@]1(c2ccc(O)cc2)COc2cc(O)ccc2[C@H]1CCCCCCCCC(CCCCCCC(F)(F)C(F)(F)F)C(=O)O (stereo partly drawn) [Example 4, (3′RS,4′RS)-10-[7-hydroxy-3-(4-hydroxyphenyl)-3-methylchroman-4-yl]-2-(7,7,8,8,8-pentafluorooctyl)decanoic acid]",71.4
3,"C[C@]1(c2ccc(O)cc2)COc2cc(O)ccc2[C@H]1CCCCCCCCCC(CCCCCCC(F)(F)C(F)(F)F)C(=O)O (stereo partly drawn) [Example 3, (3′RS,4′RS)-11-[7-hydroxy-3-(4-hydroxyphenyl)-3-methylchroman-4-yl]-2-(7,7,8,8,8-pentafluorooctyl)undecanoic acid]",85.1
4,"C[C@]1(c2ccc(O)cc2)CSc2cc(O)ccc2[C@H]1CCCCCCCCCC(CCCCCCC(F)(F)C(F)(F)F)C(=O)O (stereo partly drawn) [Example 2, (3′RS,4′RS)-11-[7-hydroxy-3-(4-hydroxyphenyl)-3-methylthiochroman-4-yl]-2-(7,7,8,8,8-pentafluorooctyl)undecanoic acid]",62.0
5,"C[C@]1(c2ccc(O)cc2)CSc2cc(O)ccc2[C@H]1CCCCCCCCC(CCCCCCC(F)(F)C(F)(F)F)C(=O)O (stereo partly drawn) [Example 1, (3′RS,4′RS)-10-[7-hydroxy-3-(4-hydroxyphenyl)-3-methylthiochroman-4-yl]-2-(7,7,8,8,8-pentafluorooctyl)decanoic acid]",78.9
